ChEMBL document CHEMBL5550209, “Hit-to-Lead Optimization of Heterocyclic Carbonyloxycarboximidamides as Selective Antagonists at Human Adenosine A3 Receptor” (J Med Chem, 2024)

Experiment: Plasma protein binding in human at 10 uM measured upto 24 hrs by equilibrium dialysis method

fraction unbound at 24 h, 10 µM: 0.01
Structure (SMILES): CN[C@H]1CC[C@@H](c2ccc(Cl)c(Cl)c2)c2ccccc21 [SERTRALINE]
